Key:
[1] = tested on: downmodulation of MHC-I molecules expressed on the surface of HIV infected SupT1 cells; experiment: cells; conditions: for EC50: Human immunodeficiency virus 1, SUP-T1, read-out: EC50 for inhibition of MHC-I downmodulation utilizing the R1 parameter; for activity at 100 µM: Human immunodeficiency virus 1, SUP-T1, read-out: R1 @ 100 μM (R1 value for MHC-I downmodulation as % of the vehicle control)
in vitro = conditions: human, uninfected SupT1 cells

| SMILES | EC50 [1] [µM] | CC50 at 48 h (in vitro) [µM] | activity at 100 µM [1] [%] | CC50 (in vitro) [µM] |
| --- | --- | --- | --- | --- |
| Cc1cc(NC(=O)COc2cccc3c2OC(C)(C)C3)ncc1Br [Compound 76, N-(5-Bromo-4-methylpyridin-2-yl)-2-((2,2-dimethyl-2,3-dihydrobenzofuran-7-yl)oxy)acetamide] | 23 | > 125 |  |  |
| CCc1cccc(NC(=O)COc2cccc3c2OC(C)(C)C3)n1 [Compound 158, 2-((2,2-Dimethyl-2,3-dihydrobenzofuran-7-yl)oxy)-N-(6-ethylpyridin-2-yl) acetamide] | 13 | > 125 |  |  |
| CN(C(=O)COc1cccc2c1OCCO2)c1nc2c(s1)CCCC2 [Compound 126, 2-((2,3-Dihydrobenzo[b][1,4]dioxin-5-yl)oxy)-N-methyl-N-(4,5,6,7-tetrahydrobenzo[d]thiazol-2-yl)acetamide] | 0.8 | > 125 |  |  |
| Cc1ccc(N(Cc2ccccc2)C(=O)COc2cccc3c2OC(C)(C)C3)nn1 [Compound 36, N-Benzyl-2-((2,2-dimethyl-2,3-dihydrobenzofuran-7-yl)oxy)-N-(6-methylpyridazin-3-yl)acetamide] | 23.6 | > 100 |  |  |
| Cc1ccnc(C)c1OCC(=O)N(C)c1nc2c(s1)CCCC2 [Compound 136, 2-((2,4-Dimethylpyridin-3-yl)oxy)-N-methyl-N-(4,5,6,7-tetrahydrobenzo[d]thiazol-2-yl)acetamide] | 12 | 124 |  |  |
| Cc1cccc(OCC(=O)N(C)c2nc3c(s2)CCCC3)c1F [Compound 113, 2-(2-Fluoro-3-methylphenoxy)-N-methyl-N-(4,5,6,7-tetrahydrobenzo[d]thiazol-2-yl)acetamide] | 0.55 | > 125 |  |  |
| CC1(C)Cc2cccc(OCC(=O)Nc3nc(C(=O)N4CC[C@H](CO)C4)cs3)c2O1 [Compound 152, (S)-2-((2,2-Dimethyl-2,3-dihydrobenzofuran-7-yl)oxy)-N-(4-(3-(hydroxymethyl)pyrrolidine-1-carbonyl)thiazol-2-yl)acetamide] | > 25 | > 90 | 54 | > 90 |
| Cc1csc(N(Cc2ncccn2)C(=O)COc2cccc3c2OC(C)(C)C3)n1 [Compound 43, 2-((2,2-Dimethyl-2,3-dihydrobenzofuran-7-yl)oxy)-N-(4-methylthiazol-2-yl)-N-(pyrimidin-2-ylmethyl)acetamide] | 0.71 | > 100 |  |  |
| COc1ccccc1OCC(=O)Nc1nc(C)c(C)s1 [Compound 186, N-(4,5-Dimethylthiazol-2-yl)-2-(2-methoxyphenoxy)acetamide] | ≥ 25 | > 100 | 18 | > 100 |
| Cc1csc(N(C(=O)COc2cccc3c2OC(C)(C)C3)c2cncnc2)n1 [Compound 97, 2-((2,2-Dimethyl-2,3-dihydrobenzofuran-7-yl)oxy)-N-(4-methylthiazol-2-yl)-N-(pyrimidin-5-yl)acetamide] | > 25 | > 125 | 5.4 | > 125 |
| CN(C(=O)COc1ccccc1OC(F)(F)F)c1nc2c(s1)CCCC2 [Compound 161, N-Methyl-N-(4,5,6,7-tetrahydrobenzo[d]thiazol-2-yl)-2-(2-(trifluoromethoxy)phenoxy)acetamide] | 0.15 | > 125 |  |  |
| Cc1nc(N(Cc2ccccc2)C(=O)COc2cccc3c2OC(C)(C)C3)sc1C [Compound 31, N-Benzyl-2-((2,2-dimethyl-2,3-dihydrobenzofuran-7-yl)oxy)-N-(4,5-dimethylthiazol-2-yl)acetamide] | 0.21 | > 100 |  |  |
| COc1ccccc1OCC(=O)Nc1nc2c(Cl)cccc2s1 [Compound 188, N-(4-Chlorobenzo[d]thiazol-2-yl)-2-(2-methoxyphenoxy)acetamide] | ≥ 10 | > 100 | 37 | > 100 |
| Cc1ccc(N(C(=O)COc2cccc3c2OC(C)(C)C3)c2nc3c(s2)CCCC3)nn1 [Compound 92, 2-((2,2-Dimethyl-2,3-dihydrobenzofuran-7-yl)oxy)-N-(6-methylpyridazin-3-yl)-N-(4,5,6,7-tetrahydrobenzo[d]thiazol-2-yl)acetamide] | 25 | > 100 |  |  |
| Cc1csc(N(Cc2ccccn2)C(=O)COc2cccc3c2OC(C)(C)C3)n1 [Compound 33, 2-((2,2-Dimethyl-2,3-dihydrobenzofuran-7-yl)oxy)-N-(4-methylthiazol-2-yl)-N-(pyridin-2-ylmethyl)acetamide] | 0.18 | > 100 |  |  |
| COc1cc(C)ccc1OCC(=O)N(C)c1nc2c(s1)CCCC2 [Compound 115, 2-(2-Methoxy-4-methylphenoxy)-N-methyl-N-(4,5,6,7-tetrahydrobenzo[d]thiazol-2-yl)acetamide] | 1.8 | > 125 |  |  |
| CC1(C)Cc2cccc(OCC(=O)Nc3ccc(Br)nn3)c2O1 [Compound 25, N-(6-Bromopyridazin-3-yl)-2-((2,2-dimethyl-2,3-dihydrobenzofuran-7-yl)oxy)acetamide] | 3.6 | > 100 |  |  |
| COc1ccccc1OCC(=O)Nc1nc(C)cs1 [Compound 190, 2-(2-Methoxyphenoxy)-N-(4-methylthiazol-2-yl)acetamide] | > 25 | > 100 | 34 | > 100 |
| Cc1csc(NC(=O)COc2cccc3cc[nH]c23)n1 [Compound 134, 2-((1H-Indol-7-yl)oxy)-N-(4-methylthiazol-2-yl)acetamide] | 11 | > 100 |  |  |
| Cc1ccc(N(C(=O)COc2cccc3c2OC(C)(C)C3)c2ccc(C)nn2)cc1 [Compound 88, 2-((2,2-Dimethyl-2,3-dihydrobenzofuran-7-yl)oxy)-N-(6-methylpyridazin-3-yl)-N-(p-tolyl)acetamide] | 3.25 | > 100 |  |  |
| CC1(C)Cc2cccc(OCC(=O)Nc3ccc(C#N)cn3)c2O1 [Compound 22, N-(5-Cyanopyridin-2-yl)-2-((2,2-dimethyl-2,3-dihydrobenzofuran-7-yl)oxy) acetamide] | 25 | > 100 |  |  |
| Cc1csc(NC(=O)COc2cccc3c2OC(C)(C)C3)n1 [Compound 181, 2-((2,2-Dimethyl-2,3-dihydrobenzofuran-7-yl)oxy)-N-(4-methylthiazol-2-yl) acetamide] | 0.62 | > 90 |  |  |
| COc1ccc(C)cc1OCC(=O)N(C)c1nc2c(s1)CCCC2 [Compound 122, 2-(2-Methoxy-5-methylphenoxy)-N-methyl-N-(4,5,6,7-tetrahydrobenzo[d]thiazol-2-yl)acetamide] | 5 | > 125 |  |  |
| Cc1ccc(CN(C(=O)COc2cccc3c2OC(C)(C)C3)c2ccc(C)cn2)nc1 [Compound 49, 2-((2,2-Dimethyl-2,3-dihydrobenzofuran-7-yl)oxy)-N-(5-methylpyridin-2-yl)-N-((5-methylpyridin-2-yl)methyl)acetamide] | 3.1 | > 125 |  |  |
| COc1ccccc1OCC(=O)N(C)c1nc2c(s1)CCCC2 [Compound 130, 2-(2-Methoxyphenoxy)-N-methyl-N-(4,5,6,7-tetrahydrobenzo[d]thiazol-2-yl) acetamide] | 0.38 | > 125 |  |  |

Source: US20220411419A1, “SMALL MOLECULE MODULATORS OF MHC-I” (RetroVirox, Inc., priority 2018, published 2022)
